Results published in patent publication US10004732B2 (Novartis AG, priority 2014, dated 2018).
Like-named read-outs stand apart in the source and are kept apart here.

How the values were obtained:
PI 3-kinase alpha [1] = molecular target: T1, PI 3-kinase alpha (Homo sapiens, UniProt P42336); assay: Kinase Glo Luminescent Kinase Assay (Kglo), assay A; type: biochemical; conditions: read-out: Assay A PI3Kα IC50
mTOR = mTOR (Homo sapiens, UniProt P42345); assay: Lanthascreen kinase binding assay, assay G; conditions: read-out: Assay G mTOR IC50
Procedure: Lanthascreen™ Kinase Binding Assay for mTOR (G)
Binding of an inhibitor to the kinase competes for binding with the tracer, resulting in a loss of FRET.
50 nL of compound dilutions were dispensed onto white 384-well small volume polystyrene plate.

[2] = system: IL-8-induced neutrophil shape change in human whole blood; assay: Whole blood neutrophil shape change assay (L); type: cell-based; conditions: IL-8, human whole blood, read-out: Assay L WBSC IC50
PI 3-kinase gamma [3] = molecular target: T2, PI 3-kinase gamma (Homo sapiens, UniProt P48736); assay: TR-FRET Adapta assay, assay E; type: biochemical; conditions: read-out: Assay E PI3Kγ IC50
Procedure: TR-FRET Adapta Assay for PI 3-Kinase Gamma (E), PI 3-Kinase Delta (F)
The TR-FRET Adapta™ Universal Kinase Assay Kit was purchased from Invitrogen Corporation (Carlsbad/CA, USA) (Cat. No. PV5099).
PIK3CD substrate phosphatidylinositol (PI) was obtained from Invitrogen (vesicules consisting of 2 mM phosphatidylinositol (PI) in 50 mM HEPES pH7.5; Cat. No. PV5371). PIK3CG substrate phosphatidylinositol-4,5-bisphosphate (PIP(4,5)2 was obtained from Invitrogen (PIP2:PS large unilamellar vesicules consisting of 1 mM PIP2: 19 mM PS in 50 mM HEPES pH7.5, 3 mM MgCl2, 1 mM EGTA; Cat. No. PV5100).
Time-Resolved Fluorescence Resonance Energy Transfer (TR-FRET) is a technology based on energy transfer between two adjacent dyes, from an excited electron in one dye (the donor) to an electron of an adjacent dye (the acceptor) through resonance, then released as a photon. This energy transfer is detected by an increase in the fluorescence emission of the acceptor, and a decrease in the fluorescence emission of the donor. TR-FRET assays for protein kinases use a long-lifetime lanthanide Terbium or Europium chelates as the donor species which overcome interference from compound autofluorescence or light scatter from precipitated compounds, by introducing a delay after excitation by a flashlamp excitation source. Results are often expressed as a ratio of the intensities of the acceptor and donor fluorophores. The ratiometric nature of such a value corrects for differences in assay volumes between wells, as well as corrects for quenching effects due to colored compounds. The Adapta™ assay can be divided into two phases: a kinase reaction phase and an ADP detection phase. In the kinase reaction phase, all kinase reaction components are added to the well and the reaction is allowed to incubate for a set period of time specific for each kinase. […] In the presence of an inhibitor, the amount of ADP formed by the kinase reaction is reduced, and the resulting intact antibody-tracer interaction maintains a high TR-FRET signal.
50 nL of compound dilutions were dispensed onto white 384-well small volume polystyrene plate. Then 5 μL of either PI 3-kinase gamma or PI 3-kinase delta and lipid substrate (PI or PIP2:PS) followed by 5 μL of ATP (final assay volume 10 μL) are incubated at RT. The standard reaction buffer for the Adapta™ TR-FRET assay contained 10 mM Tris-HCl pH 7.5, 3 mM MgCl2, 50 mM NaCl, 1 mM DTT, 0.05% CHAPS 3-[(3-cholamidopropyl)dimethylammonio]-1-propanesulfonate).
Data are analyzed using Excel fit software or Graphpad Prism. IC50 values were derived by fitting a sigmoidal dose-response curve to a plot of assay readout over inhibitor concentration. All fits were performed with the program XLfit4 (ID Business Solutions, Guildford, UK). […] All fits were performed with the program XLfit4 (ID Business Solutions, Guildford, UK).

[4] = Microsomal clearance assay (M); conditions: intrinsic clearance in rat liver microsomes
Procedure: The experiments were performed in 96-well glass plates at 37° C. on an automated Tecan EVO platform. Test compounds at a concentration of 10 mM in pure DMSO were diluted 1:1000 in water to 10 μM. […] Reactions were initiated by the addition of 150 μL of a cofactor solution containing 2 mM NADPH.

PI 3-kinase beta [5] = molecular target: T3, PI 3-kinase beta (Homo sapiens, UniProt P42338); assay: Kinase Glo Luminescent Kinase Assay (Kglo), assay B; type: biochemical; conditions: read-out: Assay B PI3Kβ IC50
Target sequence in this assay (P42338 whole entry): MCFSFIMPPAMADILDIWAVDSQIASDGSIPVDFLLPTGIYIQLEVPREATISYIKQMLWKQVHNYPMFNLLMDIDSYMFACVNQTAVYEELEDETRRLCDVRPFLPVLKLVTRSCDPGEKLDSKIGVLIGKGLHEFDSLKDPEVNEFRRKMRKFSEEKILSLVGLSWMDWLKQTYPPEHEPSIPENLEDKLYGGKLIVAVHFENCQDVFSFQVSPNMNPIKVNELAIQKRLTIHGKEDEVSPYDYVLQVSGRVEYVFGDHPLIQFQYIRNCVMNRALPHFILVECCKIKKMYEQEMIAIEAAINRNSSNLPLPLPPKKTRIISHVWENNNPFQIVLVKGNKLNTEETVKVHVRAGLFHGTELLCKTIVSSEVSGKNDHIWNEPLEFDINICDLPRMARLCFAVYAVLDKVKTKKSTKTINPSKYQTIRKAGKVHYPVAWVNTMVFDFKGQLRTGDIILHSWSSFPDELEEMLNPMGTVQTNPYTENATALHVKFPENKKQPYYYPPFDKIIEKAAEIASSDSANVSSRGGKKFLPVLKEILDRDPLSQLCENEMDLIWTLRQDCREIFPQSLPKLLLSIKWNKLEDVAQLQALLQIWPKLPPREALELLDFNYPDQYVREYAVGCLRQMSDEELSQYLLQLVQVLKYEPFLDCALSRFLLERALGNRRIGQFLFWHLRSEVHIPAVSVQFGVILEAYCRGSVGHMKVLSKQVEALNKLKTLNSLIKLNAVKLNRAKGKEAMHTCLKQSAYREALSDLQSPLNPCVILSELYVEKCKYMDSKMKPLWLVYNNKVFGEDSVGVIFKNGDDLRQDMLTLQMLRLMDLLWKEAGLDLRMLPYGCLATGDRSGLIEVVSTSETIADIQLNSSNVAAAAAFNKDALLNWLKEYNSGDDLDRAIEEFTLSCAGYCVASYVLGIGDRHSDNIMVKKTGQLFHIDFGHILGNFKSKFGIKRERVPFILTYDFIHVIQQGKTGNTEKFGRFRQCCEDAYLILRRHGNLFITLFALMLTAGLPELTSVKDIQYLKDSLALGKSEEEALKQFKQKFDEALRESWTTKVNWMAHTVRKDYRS
Target sequence in this assay (P27986 461-568 partner): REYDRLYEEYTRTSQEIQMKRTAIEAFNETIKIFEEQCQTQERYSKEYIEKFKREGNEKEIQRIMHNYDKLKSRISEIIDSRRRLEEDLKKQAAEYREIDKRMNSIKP

PI 3-kinase delta [6] = molecular target: T4, PI 3-kinase delta (Homo sapiens, UniProt O00329); assay: TR-FRET Adapta assay, assay F
Target sequence in this assay (O00329 whole entry): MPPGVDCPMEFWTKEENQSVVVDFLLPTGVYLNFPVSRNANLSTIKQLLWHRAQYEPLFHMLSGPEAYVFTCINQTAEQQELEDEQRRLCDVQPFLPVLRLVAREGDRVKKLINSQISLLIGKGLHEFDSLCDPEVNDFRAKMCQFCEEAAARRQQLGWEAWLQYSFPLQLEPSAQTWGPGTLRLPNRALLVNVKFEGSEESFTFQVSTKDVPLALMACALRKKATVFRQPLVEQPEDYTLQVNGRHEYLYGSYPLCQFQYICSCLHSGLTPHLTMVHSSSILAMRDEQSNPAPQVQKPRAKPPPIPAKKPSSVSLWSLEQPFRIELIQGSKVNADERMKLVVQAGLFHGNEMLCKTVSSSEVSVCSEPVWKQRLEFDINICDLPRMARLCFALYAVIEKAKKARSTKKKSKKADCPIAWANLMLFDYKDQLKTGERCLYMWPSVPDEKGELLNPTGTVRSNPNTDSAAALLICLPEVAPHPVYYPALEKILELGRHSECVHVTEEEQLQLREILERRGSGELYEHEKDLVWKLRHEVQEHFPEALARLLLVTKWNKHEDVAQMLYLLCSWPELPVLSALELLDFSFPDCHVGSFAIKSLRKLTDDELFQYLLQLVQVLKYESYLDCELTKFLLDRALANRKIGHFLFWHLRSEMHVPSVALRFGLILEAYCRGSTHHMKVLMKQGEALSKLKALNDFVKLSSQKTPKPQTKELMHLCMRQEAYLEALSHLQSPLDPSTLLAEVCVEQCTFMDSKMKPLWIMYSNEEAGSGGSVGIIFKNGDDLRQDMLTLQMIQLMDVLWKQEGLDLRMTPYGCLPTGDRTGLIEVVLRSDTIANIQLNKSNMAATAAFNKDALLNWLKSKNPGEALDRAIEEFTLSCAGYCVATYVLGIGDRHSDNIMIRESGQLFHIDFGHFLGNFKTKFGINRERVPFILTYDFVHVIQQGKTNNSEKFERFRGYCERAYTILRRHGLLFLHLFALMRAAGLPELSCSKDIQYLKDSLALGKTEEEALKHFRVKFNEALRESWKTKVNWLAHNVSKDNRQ
Target sequence in this assay (P27986 461-568 partner): as the sequence (P27986 461-568 partner) above

Vps34 = Vps34 (Homo sapiens, UniProt Q8NEB9); assay: Kinase Glo Luminescent Kinase Assay (Kglo), assay C; type: biochemical; conditions: read-out: Assay C VPS34 IC50
PI 3-kinase gamma [7] = molecular target: T2, PI 3-kinase gamma; assay: Cellular U937 AKT assay K1 (MSD); type: cell-based; conditions: U937 cells, K1 format; read-out: Assay K1 PI3Kγ IC50
PI 4-kinase beta = PI 4-kinase beta (Homo sapiens, UniProt Q9UBF8); assay: Kinase Glo Luminescent Kinase Assay (Kglo), assay D; type: biochemical; conditions: read-out: Assay D PI4Kβ IC50
PI 3-kinase alpha [8] = molecular target: T1, PI 3-kinase alpha; assay: Cellular assay H1, p-Akt (S473) in Rat-1 cells, Surefire format; type: cell-based; conditions: non-asterisked data: version H1 (Surefire format), Rat-1 cells; read-out: Assay H PI3Kα IC50
PI 3-kinase delta [9] = molecular target: T4, PI 3-kinase delta; assay: Cellular assay J1, p-Akt (S473) in Rat-1 cells, Surefire format; type: cell-based; conditions: non-asterisked data: version J1 (Surefire format), Rat-1 cells; read-out: Assay J PI3Kδ IC50
Target sequence in this assay (O00329 whole entry): as the sequence (O00329 whole entry) above
Target sequence in this assay (Q63787 whole entry partner): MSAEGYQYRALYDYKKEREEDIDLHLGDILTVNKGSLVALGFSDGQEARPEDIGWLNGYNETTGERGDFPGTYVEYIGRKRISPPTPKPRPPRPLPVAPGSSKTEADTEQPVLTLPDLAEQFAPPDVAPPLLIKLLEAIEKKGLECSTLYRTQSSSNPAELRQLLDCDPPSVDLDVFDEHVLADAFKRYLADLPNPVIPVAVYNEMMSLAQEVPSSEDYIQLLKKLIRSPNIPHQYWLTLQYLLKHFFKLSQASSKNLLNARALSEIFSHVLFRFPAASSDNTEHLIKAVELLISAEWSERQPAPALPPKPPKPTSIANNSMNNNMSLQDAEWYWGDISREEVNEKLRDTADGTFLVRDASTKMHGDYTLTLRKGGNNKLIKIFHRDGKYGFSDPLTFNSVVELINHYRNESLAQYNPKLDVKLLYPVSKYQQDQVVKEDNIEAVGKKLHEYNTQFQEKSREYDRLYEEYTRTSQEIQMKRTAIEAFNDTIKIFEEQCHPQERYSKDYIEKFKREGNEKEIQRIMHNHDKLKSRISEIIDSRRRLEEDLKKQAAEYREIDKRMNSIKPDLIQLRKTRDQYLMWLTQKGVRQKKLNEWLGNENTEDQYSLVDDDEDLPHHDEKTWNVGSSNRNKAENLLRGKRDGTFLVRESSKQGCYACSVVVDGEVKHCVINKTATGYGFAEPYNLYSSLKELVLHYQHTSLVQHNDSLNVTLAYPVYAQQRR

PI 3-kinase beta [10] = molecular target: T3, PI 3-kinase beta; assay: Cellular assay I1, p-Akt (S473) in Rat-1 cells, Surefire format; type: cell-based; conditions: non-asterisked data: version I1 (Surefire format), Rat-1 cells; read-out: Assay I PI3Kβ IC50
Target sequence in this assay (P42338 whole entry): as the sequence (P42338 whole entry) above
Target sequence in this assay (Q63787 whole entry partner): as the sequence (Q63787 whole entry partner) above

T2 sequence (P48736 whole entry): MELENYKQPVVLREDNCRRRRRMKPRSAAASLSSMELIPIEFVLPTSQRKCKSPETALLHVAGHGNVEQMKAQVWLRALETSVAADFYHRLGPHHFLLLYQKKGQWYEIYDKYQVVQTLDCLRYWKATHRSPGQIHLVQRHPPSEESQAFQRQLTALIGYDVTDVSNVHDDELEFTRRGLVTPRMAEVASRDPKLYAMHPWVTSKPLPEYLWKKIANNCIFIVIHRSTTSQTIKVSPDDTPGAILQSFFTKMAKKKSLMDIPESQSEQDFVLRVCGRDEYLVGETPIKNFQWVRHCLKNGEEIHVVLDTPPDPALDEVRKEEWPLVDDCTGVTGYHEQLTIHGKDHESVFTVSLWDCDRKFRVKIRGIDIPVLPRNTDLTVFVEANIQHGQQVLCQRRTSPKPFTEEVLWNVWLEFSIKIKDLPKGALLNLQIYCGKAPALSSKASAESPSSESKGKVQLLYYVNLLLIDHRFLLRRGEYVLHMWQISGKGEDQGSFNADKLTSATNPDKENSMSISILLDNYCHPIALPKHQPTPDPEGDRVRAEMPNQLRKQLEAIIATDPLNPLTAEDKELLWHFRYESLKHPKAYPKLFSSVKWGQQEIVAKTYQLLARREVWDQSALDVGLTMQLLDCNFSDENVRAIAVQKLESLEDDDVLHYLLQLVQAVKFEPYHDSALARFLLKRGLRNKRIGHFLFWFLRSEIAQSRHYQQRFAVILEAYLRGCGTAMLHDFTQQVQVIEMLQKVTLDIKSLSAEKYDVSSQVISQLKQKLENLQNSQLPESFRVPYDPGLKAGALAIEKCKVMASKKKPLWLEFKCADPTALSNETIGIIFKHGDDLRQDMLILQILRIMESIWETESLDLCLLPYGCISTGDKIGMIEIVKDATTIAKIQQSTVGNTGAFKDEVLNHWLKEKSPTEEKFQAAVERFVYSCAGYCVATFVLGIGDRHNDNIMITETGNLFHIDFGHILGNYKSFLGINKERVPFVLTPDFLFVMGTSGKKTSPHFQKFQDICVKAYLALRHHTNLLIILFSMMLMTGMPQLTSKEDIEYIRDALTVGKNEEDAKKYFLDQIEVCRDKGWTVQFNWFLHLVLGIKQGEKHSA
Chain of PI 4-kinase beta (Q9UBF8 whole entry): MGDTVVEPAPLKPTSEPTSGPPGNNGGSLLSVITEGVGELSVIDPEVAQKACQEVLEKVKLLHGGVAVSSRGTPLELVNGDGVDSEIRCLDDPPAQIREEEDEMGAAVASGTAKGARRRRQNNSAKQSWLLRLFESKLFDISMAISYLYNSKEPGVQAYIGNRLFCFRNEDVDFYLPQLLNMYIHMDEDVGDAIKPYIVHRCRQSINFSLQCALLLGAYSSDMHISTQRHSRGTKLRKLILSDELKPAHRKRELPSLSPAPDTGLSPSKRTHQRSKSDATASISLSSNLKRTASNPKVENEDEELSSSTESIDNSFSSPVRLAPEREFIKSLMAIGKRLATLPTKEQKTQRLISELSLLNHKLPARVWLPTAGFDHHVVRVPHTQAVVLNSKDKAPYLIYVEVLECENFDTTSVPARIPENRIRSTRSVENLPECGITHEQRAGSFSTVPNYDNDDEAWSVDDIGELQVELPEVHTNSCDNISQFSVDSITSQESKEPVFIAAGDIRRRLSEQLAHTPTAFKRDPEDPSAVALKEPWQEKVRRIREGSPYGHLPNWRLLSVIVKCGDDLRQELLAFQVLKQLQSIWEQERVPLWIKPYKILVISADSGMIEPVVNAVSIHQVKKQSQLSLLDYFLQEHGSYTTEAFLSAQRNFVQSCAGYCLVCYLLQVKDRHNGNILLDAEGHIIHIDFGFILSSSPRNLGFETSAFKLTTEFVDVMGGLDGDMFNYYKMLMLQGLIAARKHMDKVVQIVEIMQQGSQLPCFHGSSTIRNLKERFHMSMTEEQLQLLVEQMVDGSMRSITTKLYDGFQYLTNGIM

| IC50 (PI 3-kinase alpha [1]) | IC50 (mTOR) | IC50 ([2]; Homo sapiens, Neutrophil) | IC50 (PI 3-kinase gamma [3]) | Assay M RLM CI(int) [4] | IC50 (PI 3-kinase beta [5]) | IC50 (PI 3-kinase delta [6]; read-out: Assay F PI3Kδ IC50) | IC50 (Vps34) | IC50 (PI 3-kinase gamma [7]) | IC50 (PI 4-kinase beta) | IC50 (PI 3-kinase alpha [8]) | IC50 (PI 3-kinase delta [9]) | IC50 (PI 3-kinase beta [10]) | IC50 [2] | IC50 (PI 3-kinase delta [6]; Assay F PI3Kδ IC50 (μM)) | Compound |
| --- | --- | --- | --- | --- | --- | --- | --- | --- | --- | --- | --- | --- | --- | --- | --- |
| 120 nM | 3990 nM | 7080 nM | 99 nM | 137 µL/min/mg | 1370 nM | 0.04 µM | > 9100 nM | 42 nM | 760 nM | – | – | – | – | – | Cc1ccc(-c2nc(-c3cc(S(=O)(=O)NCCC(C)(C)O)ccc3C)cnc2N)s1 [Example 119.44] |
| 230 nM | 5470 nM | 881 nM | 34 nM | 45 µL/min/mg | 4200 nM | 0.3 µM | > 9100 nM | 134 nM | > 9100 nM | – | – | – | – | – | Cc1ccc(S(=O)(=O)NCCC(C)(C)O)cc1-c1cnc(N)c(-c2ccnn2C)n1 [Example 77, 3-(5-Amino-6-(1-methyl-1H-pyrazol-5-yl)pyrazin-2-yl)-N-(3-hydroxy-3-methylbutyl)-4-methylbenzenesulfonamide] |
| 680 nM | > 9100 nM | 759 nM | 26 nM | 34 µL/min/mg | 4300 nM | 0.56 µM | > 9100 nM | 280 nM | 8900 nM | – | – | – | – | – | Cc1ccc(S(=O)(=O)NCC2(O)CC2)cc1-c1cnc(N)c(-n2cncn2)n1 [Example 28, 3-(5-Amino-6-[1,2,4]triazol-1-yl-pyrazin-2-yl)-N-(1-hydroxy-cyclopropylmethyl)-4-methyl-benzenesulfonamide] |
| 740 nM | 4950 nM | 3520 nM | 14 nM | 74 µL/min/mg | 1650 nM | 0.14 µM | 2950 nM | 59 nM | 2700 nM | – | – | – | – | – | Cc1ccc(S(=O)(=O)NCC(C)(C)CO)cc1-c1cnc(N)c(-c2cc(C3CC3)no2)n1 [Example 99, 3-(5-Amino-6-(3-cyclopropylisoxazol-5-yl)pyrazin-2-yl)-N-(3-hydroxy-2,2-dimethylpropyl)-4-methylbenzenesulfonamide] |
| 280 nM | 6500 nM | 3210 nM | 22 nM | 63 µL/min/mg | 1200 nM | 0.37 µM | 7600 nM | 53 nM | 3900 nM | – | – | – | – | – | Cc1ccc(S(=O)(=O)NCC(C)(C)O)cc1-c1cnc(N)c(-c2cc(C3CC3)no2)n1 [Example 79, 3-(5-Amino-6-(3-cyclopropylisoxazol-5-yl)pyrazin-2-yl)-N-(2-hydroxy-2-methylpropyl)-4-methylbenzenesulfonamide] |
| 160 nM | 250 nM | 478 nM | 17 nM | 710 µL/min/mg | 850 nM | 0.11 µM | > 10000 nM | 51 nM | 8000 nM | – | – | – | – | – | Cc1ccc(S(=O)(=O)NCC(=O)C(C)(C)C)cc1-c1cnc(N)c(-n2cncn2)n1 [Example 36, 3-(5-Amino-6-[1,2,4]triazol-1-yl-pyrazin-2-yl)-N-(3,3-dimethyl-2-oxo-butyl)-4-methyl-benzenesulfonamide] |
| 190 nM | 7600 nM | 3850 nM | 24 nM | – | 1900 nM | 0.79 µM | > 10000 nM | 126 nM | 5300 nM | – | – | – | – | – | Cc1ccc(S(=O)(=O)NCCC2(O)CCCC2)cc1-c1cnc(N)c(-n2cncn2)n1 [Example 127.36] |
| 180 nM | > 10000 nM | 825 nM | 41 nM | 25 µL/min/mg | 5500 nM | 0.54 µM | > 10000 nM | – | > 10000 nM | 860 nM | 610 nM | 2980 nM | – | – | CCn1ncc(-c2nc(-c3cc(S(=O)(=O)NCC(C)(C)O)ccc3C)cnc2N)n1 [Example 82, 3-(5-Amino-6-(2-ethyl-2H-1,2,3-triazol-4-yl)pyrazin-2-yl)-N-(2-hydroxy-2-methylpropyl)-4-methylbenzenesulfonamide] |
| 110 nM | 2000 nM | – | 25 nM | 58 µL/min/mg | 750 nM | – | > 10000 nM | – | 4600 nM | 1920 nM | 1410 nM | 2640 nM | 185 nM | 0.29 µM | Cc1ccc(S(=O)(=O)NC2CC3(CC(O)C3)C2)cc1-c1cnc(N)c(-n2cncn2)n1 (single isomer, unassigned) [Example 70a, (S)-3-(5-Amino-6-(1H-1,2,4-triazol-1-yl)pyrazin-2-yl)-N-(6-hydroxyspiro[3.3]heptan-2-yl)-4-methylbenzenesulfonamide or (R)-3-(5-Amino-6-(1H-1,2,4-triazol-1-yl)pyrazin-2-yl)-N-(6-hydroxyspiro[3.3]heptan-2-yl)-4-methylbenzenesulfonamide] |
| 920 nM | 9000 nM | 1790 nM | 69 nM | – | 2600 nM | 0.9 µM | > 10000 nM | 645 nM | 8450 nM | – | – | – | – | – | Cc1ccc(S(=O)(=O)NC[C@H]2CCCO2)cc1-c1cnc(N)c(-n2cncn2)n1 [Example 127.14] |
| 1100 nM | > 10000 nM | 2180 nM | 60 nM | – | 2200 nM | 3.2 µM | > 10000 nM | 266 nM | 6600 nM | – | – | – | – | – | Cc1ccc(S(=O)(=O)NCC2(O)COC2)cc1-c1cnc(N)c(-n2cncn2)n1 [Example 127.47] |
| 330 nM | > 10000 nM | – | 13 nM | 18 µL/min/mg | 1100 nM | 1 µM | > 10000 nM | – | 2800 nM | 3060 nM | 3650 nM | 8020 nM | 763 nM | – | Cc1ccc(S(=O)(=O)N[C@H]2C[C@H](O)C2)cc1-c1cnc(N)c(-n2cncn2)n1 [Example 71a, 3-(5-Amino-6-(1H-1,2,4-triazol-1-yl)pyrazin-2-yl)-N-((1r,3r)-3-hydroxycyclobutyl)-4-methylbenzenesulfonamide] |
| 250 nM | 6700 nM | 9190 nM | 110 nM | 122 µL/min/mg | – | 0.07 µM | > 9100 nM | 81 nM | 610 nM | – | – | – | – | – | Cc1ccc(S(=O)(=O)NCCC(C)(C)O)cc1-c1cnc(N)c(-c2ccc(C3CC3)s2)n1 [Example 119.46] |
| 290 nM | 1100 nM | 2470 nM | 11 nM | 907 µL/min/mg | 1200 nM | 0.56 µM | > 10000 nM | – | 1500 nM | 1570 nM | 1140 nM | > 10000 nM | – | – | Cc1ccc(S(=O)(=O)N2CCCC(F)(F)C2)cc1-c1cnc(N)c(-n2cncn2)n1 [Example 127.1] |
| 200 nM | 9600 nM | 1090 nM | 26 nM | – | 1800 nM | 0.79 µM | > 10000 nM | 242 nM | 8700 nM | – | – | – | – | – | Cc1ccc(S(=O)(=O)NC[C@H]2CCOC2)cc1-c1cnc(N)c(-n2cncn2)n1 [Example 127.27] |
| 760 nM | > 10000 nM | – | 21 nM | 26 µL/min/mg | 1900 nM | 1.3 µM | > 10000 nM | – | 4600 nM | 6910 nM | 5860 nM | > 10000 nM | 1620 nM | – | Cc1ccc(S(=O)(=O)N[C@H]2C[C@@H](O)C2)cc1-c1cnc(N)c(-n2cncn2)n1 [Example 71b, 3-(5-amino-6-(1H-1,2,4-triazol-1-yl)pyrazin-2-yl)-N-((1s,3s)-3-hydroxycyclobutyl)-4-methylbenzenesulfonamide] |
| 260 nM | > 10000 nM | 1620 nM | 61 nM | – | 1300 nM | 0.62 µM | > 10000 nM | 153 nM | 3900 nM | – | – | – | – | – | Cc1ccc(S(=O)(=O)NCC2CCCOC2)cc1-c1cnc(N)c(-n2cncn2)n1 (stereo not drawn) [Example 127.19] |
| 560 nM | 8800 nM | 1640 nM | 95 nM | – | 1700 nM | 3.4 µM | > 10000 nM | 275 nM | 2900 nM | – | – | – | – | – | Cc1ccc(S(=O)(=O)NCC(C)(F)F)cc1-c1cnc(N)c(-n2cncn2)n1 [Example 127.43] |
